pIC50: −log10 of the molar value.
What was measured:
[1] = target: recombinant human mPGES-1 (Homo sapiens (Human), UniProt O14684); test: mPGES-1 enzyme assay (HTRF detection of PGE2); format: biochemical; details: recombinant human mPGES-1 microsomes, PGH2 2 μM, 60 seconds; read-out: mPGES-1 inhibitory effect IC50 in the enzyme assay
Procedure: Microsomes from Rosetta E. coli bacteria expressing recombinant human mPGES-1 can be derived as described below:
Inoculate 5 ml LB with Ampicilin (50 μg/ml) and Chloramphenicol (34 μg/ml) with bacteria from freeze culture. Incubate 8 h at 37° C. with 200 rpm. Thereafter, inoculate 500-1000 ml LB containing Amp and Chloro with the 5 ml on culture and grow to OD640 of 0.8-1.0. Chill the culture to +4° C. before induction. Induce the culture with IPTG at a final concentration of 400 μM. Express the protein at room temp 18-23° C. with 200 rpm shaking over night.
The following steps can be performed on the following day: • 1. Spin down the cells in 250 ml centrifuge flasks for 15 min at 7000 rpm (Beckmann Coulte Avanti J-E centrifuge) • 2. Dissolve the pellet from 250 ml culture in 12.5 ml homogenization buffer • 3. (15 mM Tris-HCL pH8, 1 mM EDTA pH8, […], 2.5 mM GSH, 1 Tablet Protease inhibitor per 50 ml buffer) • 4. Disintegrate the cells by sonication, 5×10 seconds at 48% amplitude of a 750 W sonifier • 5. Add 2.5 ml MgCl2 (100 mM) and DNase 12.5 μl (0.8 mg/ml) and incubate on ice for 30 min • 6. Spin down the bacteria debris and save the supernatant, 7000 rpm for 15 min • 7. Isolate the protein containing membranes in the supernatant by ultracentrifugation 120000×g for 2 hour at 4° C. (Sorvall T880 rotor). • 8. Discard the supernatant and dissolve the pellet in 20 mM Potassium phosphate buffer pH7.4 (KH2PO4 and K2HPO4) buffer by sonication (5×10 s, 30% of a 50 W sonifier) and aliquot the enzyme and store aliquots at −80° C.
Before each experiment is performed an aliquot of the enzyme is thawed and it can then be dissolved in 0.1 M Potassium phosphate buffer pH7.4 (KH2PO4 and K2HPO4) buffer containing 2.5 mM GSH.
The aim of this assay is to determine the affinity of a test compound for the mPGES-1 enzyme.
47 μl of recombinant human mPGES-1 (˜0.5 μg protein/well) containing microsomal suspension in a buffer containing GSH, (2.5 mmol/L L-Glutathione reduced, dissolved in 0.1 mol/L Phosphat Buffer pH 7.4) is dispensed in a 384-well plate and thereafter 1 μl of the test compound(s) is/are added and incubated for 25 minutes at room temperature. The enzyme reaction is started by the addition of 2 ul PGH2 (final conc 2 μM) disolved in water-free Diglyme. After 60 seconds the reaction is terminated by addition of a stop solution containing FeCl2 (10 μL 0.074 mol/l FeCl2). The samples are diluted between 1:25 in PBS (Phosphate Buffered Saline). 10 μl of the diluted samples are transferred to 384-well low volume plate. In order to quantify the amount of PGE2 that has been formed, a homogenous time resolved fluorescent (HTRF) detecting of PGE2 has been performed using a commercially available kit from Cisbio according to the manufactures recommendation. This HTRF-based assay has been described in detail (see: Goedken et al., J Biomol Screen, 2008, 13(7), 619-625). Briefly, the diluted samples are mixed with 5 μl PGE2-d2 conjugate and 5 μl anti-PGE2 cryptate conjugate. After an incubation period of the plates over night, the fluorescence is measured by the use of an appropriate microplate reader.
The fluorescence of Europium cryptate (maxex=307 nm, maxem=620 nm) and d2-PGE2 (maxex=620 nm, maxem=665 nm) are measured.
The extent of the specific HTRF is measured as a ratio of the emission intensity at 665 nm vs. that at 620 nm at an excitation puts of 320 nm. The quantification plate contains also wells with different concentrations of PGE2 as calibration curve for the calculation of the PGE2 concentrations from the HTRF ratio values.
From all mPGES enzyme assay the background is subtracted and the IC50 is calculated over a nonlinear regression with conventional software.

mPGES-1 in A549 cells = mPGES-1 in A549 cells (Homo sapiens (Human), UniProt O14684); test: A549 cell-based assay (PGE2 formation, 50% human serum); details: IL-1β 5 ng/ml, 10 nM arachidonic acid, 20-24 h, read-out: mPGES-1 inhibitory effect IC50 in the cell assay
mPGES-1 in A549 cells, sequence (O14684 whole entry): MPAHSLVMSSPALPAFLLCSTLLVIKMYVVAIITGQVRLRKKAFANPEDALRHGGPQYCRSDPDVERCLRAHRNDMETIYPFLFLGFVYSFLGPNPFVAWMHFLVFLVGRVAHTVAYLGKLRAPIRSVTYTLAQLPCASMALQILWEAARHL
Outline: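 A549 cells in F-12K with 50% human serum were stimulated 20-24 h with 5 ng/ml IL-1β and 10 nM arachidonic acid in presence of compound or vehicle. PGE2 in the cell-free medium was measured by HTRF, normalised to vehicle (100%). IC50 from 6-8 point titrations.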

recombinant human mPGES-1, sequence (O14684 whole entry): as above

Compound	pIC50 [1]	pIC50 (mPGES-1 in A549 cells)
Cn1c(Nc2c(Cl)ccc(CNC(=O)C(C)(C)C)c2Cl)nc2cc(C(=O)N[C@H]3CC[C@@H](C(F)(F)F)CC3)c(N3CC4CC4C3)cc21 (stereo partly shown) [Example 63]	8.52	8.22
Cn1c(Nc2c(Cl)ccc(CNC(=O)C(C)(C)C)c2Cl)nc2cc(C(=O)Nc3ccc(OC(F)(F)F)cc3)c(N3CC4CC4C3)cc21 (stereo not shown) [Example 64]	8.52	8.59
Cn1c(Nc2c(Cl)ccc(CNC(=O)C(C)(C)C)c2Cl)nc2cc(C(=O)Nc3ccc(Cl)c(F)c3)c(N3CC4CC4C3)cc21 (stereo not shown) [Example 66]	8.52	8.80
Cn1c(Nc2c(Cl)ccc(CNC(=O)C(C)(C)C)c2Cl)nc2cc(C(=O)N[C@H]3CC[C@H](C(F)(F)F)CC3)c(N3CCOCC3)cc21 [Example 67]	8.40	8.70
Cn1c(Nc2c(Cl)ccc(CNC(=O)C(C)(C)C)c2Cl)nc2cc(C(=O)NCC(F)(F)C(F)(F)F)c(N3CCOCC3)cc21 [Example 68]	8.40	9.00
Cn1c(Nc2c(Cl)ccc(CNC(=O)C(C)(C)C)c2Cl)nc2cc(C(=O)N[C@H]3CC[C@H](C(F)(F)F)CC3)c(N3CCC(F)(F)CC3)cc21 [Example 69]	8.70	9.00
CC(C)(C)C(=O)NCc1ccc(Cl)c(Nc2nc3cc(C(=O)NCC(F)(F)C(F)(F)F)c(N4CCOCC4)cc3n2CC(F)F)c1Cl [Example 72]	8.40	8.40
CC(C)(C)C(=O)NCc1ccc(Cl)c(Nc2nc3cc(C(=O)NCC(F)(F)C(F)(F)F)c(N4CCC(F)(F)CC4)cc3n2CC(F)F)c1Cl [Example 74]	8.52	8.40
CC(C)(C)C(=O)NCc1ccc(Cl)c(Nc2nc3cc(C(=O)N[C@H]4CC[C@H](C(F)(F)F)CC4)c(N4CC[C@@H](F)C4)cc3n2CC(F)F)c1Cl [Example 79]	8.52	9.00
Cn1c(Nc2c(Cl)ccc(CNC(=O)C(C)(C)C)c2Cl)nc2cc(C(=O)NCCC(F)(F)F)c(N3CCCC(C(F)(F)F)C3)cc21 (stereo not shown) [Example 81, N-(3,3,3-Trifluoropropyl)-2-{2,6-dichloro-3-[(2,2-dimethyl-propionylamino)-methyl]-phenylamino}-6-[3-trifluoromethyl-piperidinyl]-1-methyl-1H-benzimidazole-5-carboxylic acid amide]	8.40	> 9.00
Cn1c(Nc2c(Cl)ccc(CNC(=O)C(C)(C)C)c2Cl)nc2cc(C(=O)N[C@H]3CC[C@H](C(F)(F)F)CC3)c(N3CCC(O)(C(F)(F)F)CC3)cc21 [Example 82]	8.52	9.00
Cn1c(Nc2c(Cl)ccc(CNC(=O)C(C)(C)C)c2Cl)nc2cc(C(=O)N[C@H]3CC[C@H](C(F)(F)F)CC3)c(N3CCC(O)C3)cc21 (stereo partly shown) [Example 84]	8.52	7.80
Cn1c(Nc2c(Cl)ccc(CNC(=O)C(C)(C)C)c2Cl)nc2cc(C(=O)N[C@H]3CC[C@H](C(F)(F)F)CC3)c(NCCCO)cc21 [Example 85]	7.82	7.07
Cn1c(Nc2c(Cl)ccc(CNC(=O)C(C)(C)C)c2Cl)nc2cc(C(=O)N[C@H]3CC[C@H](C(F)(F)F)CC3)c(N3CC(C)(O)C3)cc21 [Example 86]	8.40	8.30
Cn1c(Nc2c(Cl)ccc(CNC(=O)C(C)(C)C)c2Cl)nc2cc(C(=O)N[C@H]3CC[C@H](C(F)(F)F)CC3)c(N3CC(O)C3)cc21 [Example 87]	8.70	8.10
CN(Cc1nccn1C)c1cc2c(cc1C(=O)N[C@H]1CC[C@H](C(F)(F)F)CC1)nc(Nc1c(Cl)ccc(CNC(=O)C(C)(C)C)c1Cl)n2C [Example 88]	8.70	8.82
Cn1c(Nc2c(Cl)ccc(CNC(=O)C(C)(C)C)c2Cl)nc2cc(C(=O)N[C@H]3CC[C@H](C(F)(F)F)CC3)c(N3CCCC(C(F)(F)F)C3)cc21 (stereo partly shown) [Example 89]	8.70	9.00
CN(c1cc2c(cc1C(=O)N[C@H]1CC[C@H](C(F)(F)F)CC1)nc(Nc1c(Cl)ccc(CNC(=O)C(C)(C)C)c1Cl)n2C)C1CCC1 [Example 91]	8.40	> 9.00
Cn1c(Nc2c(Cl)ccc(CNC(=O)C(C)(C)C)c2Cl)nc2cc(C(=O)N[C@H]3CC[C@H](C(F)(F)F)CC3)c(N3C4CCC3CC4)cc21 [Example 92]	8.70	8.85
Cn1c(Nc2c(Cl)ccc(CNC(=O)C(C)(C)C)c2Cl)nc2cc(C(=O)N[C@H]3CC[C@H](C(F)(F)F)CC3)c(N3CC4(COC4)C3)cc21 [Example 93]	8.52	7.77
Cn1c(Nc2c(Cl)ccc(CNC(=O)C(C)(C)C)c2Cl)nc2cc(C(=O)N[C@H]3CC[C@H](C(F)(F)F)CC3)c(N3CC4(CCC4)C3)cc21 [Example 94]	8.40	8.22
Cn1c(Nc2c(Cl)ccc(CNC(=O)C(C)(C)C)c2Cl)nc2cc(C(=O)N[C@H]3CC[C@H](C(F)(F)F)CC3)c(N3CC4CCCC43)cc21 (stereo partly shown) [Example 95]	8.70	8.15

Further compounds by rising pIC50 [1], results first:

pIC50 [1]	pIC50 (mPGES-1 in A549 cells)	Compound
8.70	> 9.00	Cn1c(Nc2c(Cl)ccc(CNC(=O)C(C)(C)C)c2Cl)nc2cc(C(=O)N[C@H]3CC[C@@H](C(F)(F)F)CC3)c(N3CCC(C(F)(F)F)CC3)cc21 [Example 61]
8.70	> 9.00	Cn1c(Nc2c(Cl)ccc(CNC(=O)C(C)(C)C)c2Cl)nc2cc(C(=O)NCCC(F)(F)F)c(N3CCC(C(F)(F)F)CC3)cc21 [Example 62]
8.70	8.70	Cn1c(Nc2c(Cl)ccc(CNC(=O)C(C)(C)C)c2Cl)nc2cc(C(=O)NCC(F)(F)C(F)(F)F)c(N3CCC(F)(F)CC3)cc21 [Example 70]
8.70	> 9.00	CC1(O)CCN(c2cc3c(cc2C(=O)N[C@H]2CC[C@H](C(F)(F)F)CC2)nc(Nc2c(Cl)ccc(CNC(=O)C(C)(C)F)c2Cl)n3CC(F)F)CC1 [Example 78]
8.70	9.00	CC(C)(F)C(=O)NCc1ccc(Cl)c(Nc2nc3cc(C(=O)N[C@H]4CC[C@H](C(F)(F)F)CC4)c(N4CCC(O)(C(F)(F)F)CC4)cc3n2CC(F)F)c1Cl [Example 80]
8.70	8.85	Cn1c(Nc2c(Cl)ccc(CNC(=O)C(C)(C)C)c2Cl)nc2cc(C(=O)N[C@H]3CC[C@H](C(F)(F)F)CC3)c(N3CCC(C)(O)C3)cc21 (stereo partly shown) [Example 83]
9.00	9.00	Cn1c(Nc2c(Cl)ccc(CNC(=O)C(C)(C)C)c2Cl)nc2cc(C(=O)NC3CCC(F)(F)CC3)c(N3CCC(C(F)(F)F)CC3)cc21 [Example 60]
9.00	9.00	Cn1c(Nc2c(Cl)ccc(CNC(=O)C(C)(C)C)c2Cl)nc2cc(C(=O)Nc3ccc(F)c(Cl)c3)c(N3CC4CC4C3)cc21 (stereo not shown) [Example 65]
9.00	8.70	CC(C)(C)C(=O)NCc1ccc(Cl)c(Nc2nc3cc(C(=O)N[C@H]4CC[C@H](C(F)(F)F)CC4)c(N4CCC(C(F)(F)F)CC4)cc3n2CC(F)F)c1Cl [Example 75]
9.00	9.00	CC(C)(C)C(=O)NCc1ccc(Cl)c(Nc2nc3cc(C(=O)NCC(F)(F)C(F)(F)F)c(N4CCC(C(F)(F)F)CC4)cc3n2CC(F)F)c1Cl [Example 76]
